The source of these data is patent US20030166138A1, “Cyclic peptides and analogs useful to treat allergies” (priority 2002, published 2003).

One assay concerns germline ε promoter. The assay is described as follows: GFP reporter assay of IL-4 induced ε promoter-driven transcription in naive A5T4 cells (phenotype transfer). In kind it is cell-based. The note with it: for Mutant Reporter Ratio (± std) / Wild-Type Reporter Ratio (± std) / activity in blocking epsilon promoter transcription (GFP reporter) when presented in the mutant intein context: naive A5T4 cells; for Mutant Reporter Ratio (± std): mutant intein construct (non-cyclic, splicing-deficient), IL-4 stimulated, GFP fluorescence; for Wild-Type Reporter Ratio (± std): wild-type intein construct (cyclic peptide), IL-4 30 U/ml, GFP fluorescence BFP−/BFP+, average of 3 values; for activity in blocking epsilon promoter transcription (GFP reporter) when presented in the mutant intein context: mutant intein construct. An excerpt:
To establish the A5T4 reporter cell line, BJAB cells were infected with a retroviral vector containing an IL-4 responsive 600 bp fragment of the epsilon promoter (Pε) followed by a fusion nucleic acid encoding HBEGF-2a-GFP and a polyadenylation sequence cloned in the reverse orientation into pCGSin (Lorens et al., 2000, Mol. Ther. 1:438-447). Infected cells were induced with IL-4 and single cell sorted by FACS for GFP reporter expression. One of the cell clones identified with the desired profile was designated A5. This cell line was infected with the CtTAIH retroviral vector expressing tTA-VP16 ires hygromycin phosphotranferase gene (Lorens et al., 2000, Virology 272:7) selected with hygromycin and single cell cloned. The clone selected for the screening cell line was characterized for tetracycline regulation and was designated A5T4.
Referring to FIG. 9 or 10, after single cell clones had expanded, cells were replica-plated and grown in the presence or absence of 100 ng/ml Dox for 4 days. Both plates were then stimulated with IL-4 (30 U/ml) and, after 3 more days, both populations were analyzed by FACS to measure GFP fluorescence. FACS data were converted to reporter ratios, which are defined as the ratio of the geometric mean of GFP fluorescence of the +IL-4/+Dox (peptide off) population over the geometric mean of the +IL-4/−Dox (peptide on) population. Cells expressing a cyclic peptide that inhibits germline ε transcription have reporter ratios of >1.1, typically >1.12, >1.13, >1.14 or >1.15.
Phoenix packaging cells were transfected with the retroviral vector illustrated in FIG. 6A encoding a particular cyclic peptide as described in WO 97/27213. Naïve A5T4 cells were infected with the resultant retrovirons and grown for three days. The infected cells (BFP^+) were stimulated with IL-4 (30 U/ml) and, after three days, were assessed by FACS for BFP and GFP fluorescence.
The GFP fluorescence data corresponding to the BFP^−/BFP^+in the presence of IL-4 stimulation were obtained for 34 clones and reporter ratios were calculated therefrom. […] Three others had reporter wt ratios in the range of about 1.12-1.2. The names of the clones, sequences of the regions of the polynucleotides encoding the cyclic peptides SEQ ID NOS:1-23, the sequences of the expressed cyclic peptides SEQ ID NOS:1-23 and their respective reporter ratios are provided in TABLE 1, below (“wild-type” reporter ratios; each reporter ratio is the average of 3 values):
As discussed previously, intein splicing is dependent upon the presence of nucleophilic residues at the splice junctions (underlined in FIG. 6A; see Perler & Adam, 2000, Curr. Opin. Biotechnol. 11:377-383). To confirm that the inhibitory activity of the clones of TABLE 1 was due to the expression of a cyclic peptide, mutants were created that lacked the ability to catalyze the splicing reaction due to the replacement of these three critical underlined nucleophilic residues with alanines. These mutants (illustrated in FIG. 6B) were then used to infect naive A5T4 cells as described above.
In general terms: Reporter assays use an easily measured gene product as a stand-in for the process of interest.

The subject of assay [1] is endogenous germline ε promoter. The experiment in a line: Quantitative real time PCR (Taqman) of endogenous germline ε transcript in A5T4 cells. In kind it is cell-based. The note with it: mutant intein context, +IL-4. How it is done:
The ability of cyclic peptides SEQ ID NOS:1-20 to inhibit transcription of an endogenous germline ε promoter was confirmed using quantitative real time PCR (Taqman®; Applied Biosystems, Foster City, Calif.). Briefly, A5T4 cells were infected with retrovirus capable of expressing the cyclic peptides (prepared as described above). Cells were first sorted for BFP to ensure that they were retrovirally infected. Several different assay conditions were tested: −Dox/-IL-4, −Dox/+IL-4, +Dox/-IL-4, +Dox/+IL-4. All experiments were conducted in triplicate. BFP positive sorted cells were thereafter maintained in Dox (peptide off). To obtain the −Dox condition, cells were washed 2× with media and maintained in Dox-free culture for 72 hours. Cells in +/−Dox were split to 50,000 cells per ml. The following day, IL-4 was added (30 units/ml) and cells were incubated for 3 days before FACS analysis and pelleting for RNA extraction. The primers and probe used were as follows (the probe was labeled at the 5′-end with Fam and at the 3′-end with Tamra):
The probe spans a splice junction and thus will not detect contaminating DNA in the reaction assay. […] The epsilon inhibition ratio R was calculated by dividing the transcript expression values in the presence of Dox and IL-4 (+IL-4/+Dox) by values in the absence of Dox and presence of IL-4(+IL-4/−Dox). […]
In general terms: In qPCR the cycle at which signal appears reflects the starting amount.

“Also recorded” adds a separate entry of the source.

Turning to cyclo(S R R H C C H), in the assay on germline ε promoter, the “Mutant Reporter Ratio (± std)” value stood at 1.02 ± 0.03 and the “Wild-Type Reporter Ratio (± std)” value is on record as 1.09 ± 0.03.
On to cyclo(S Y S Q), for which, in the assay on germline ε promoter, the “activity in blocking epsilon promoter transcription (GFP reporter) when presented in the mutant intein context” value (“activity” below) was “inactive”, the “Mutant Reporter Ratio (± std)” value worked out at 1.07 ± 0.01 and the “Wild-Type Reporter Ratio (± std)” value is listed as 1.18 ± 0.01.
Taken in the same sequence, the figures for cyclo(S N I P Q) were “inactive”, 1.10 ± 0.02 and 1.20 ± 0.01.
With cyclo(S F G R S), in the assay with germline ε promoter, the “activity” value was “inactive”, the “Mutant Reporter Ratio (± std)” value amounted to 1.08 ± 0.06 and the “Wild-Type Reporter Ratio (± std)” value was 1.20 ± 0.02.
In the same order, the values of cyclo(S A R F V) are “decrease in activity”, 1.43 ± 0.03 and 1.52 ± 0.04.
Taken in the same sequence, the figures for cyclo(S F V T W) were “decrease in activity”, 1.25 ± 0.06 and 1.46 ± 0.12.
On to cyclo(S S F T), for which, in the assay with germline ε promoter, the “Mutant Reporter Ratio (± std)” value worked out at 1.05 ± 0.04 and the “Wild-Type Reporter Ratio (± std)” value came out at 1.10 ± 0.03.
For cyclo(S N F T F), in the assay on germline ε promoter, the “activity” value is “inactive; also recorded: did not strongly block”, the “Mutant Reporter Ratio (± std)” value amounted to 1.08 ± 0.05 and the “Wild-Type Reporter Ratio (± std)” value is on record as 1.28 ± 0.05. For the same substance, the “block of endogenous ε-transcription” value in assay [1] was “clearly blocked”.
Turning to cyclo(S P W K L V G), in the assay on germline ε promoter, the “activity” value is “inactive”, the “Mutant Reporter Ratio (± std)” value came to 1.02 ± 0.06 and the “Wild-Type Reporter Ratio (± std)” value was found to be 1.27 ± 0.03.
In the same order, the values of cyclo(S S L R W) are “decrease in activity”, 1.21 ± 0.02 and 1.31 ± 0.05.
Consider cyclo(S R V E I), for which, in the assay on germline ε promoter, the “activity” value was “No significant difference; also recorded: inactive”, the “Mutant Reporter Ratio (± std)” value is given as 1.06 ± 0.06 and the “Wild-Type Reporter Ratio (± std)” value was 1.53 ± 0.16. In addition, the “inhibition of ε-promoter induction” value in the assay on germline ε promoter (net increase of geometric mean GFP fluorescence following IL-4 stimulation, BFP+ vs uninfected population, wild-type intein) was found to be 51%.
For the substance cyclo(S G A D S), in the assay with germline ε promoter, the “activity” value is “inactive”, the “Mutant Reporter Ratio (± std)” value was determined as 1.08 ± 0.05 and the “Wild-Type Reporter Ratio (± std)” value was 1.23 ± 0.02.
Taken in the same sequence, the figures for cyclo(S W A Q A) were “inactive”, 1.10 ± 0.04 and 1.25 ± 0.02.
In the same order, the values of cyclo(S L N R I) are “remained active”, 1.40 ± 0.08 and 1.45 ± 0.07.
Taken in the same sequence, the figures for cyclo(S E M F S I Q) were “inactive”, 1.13 ± 0.03 and 1.28 ± 0.03.
With cyclo(S Y F T S C W), in the assay with germline ε promoter, the “activity” value is recorded as “decrease in activity”, the “Mutant Reporter Ratio (± std)” value was found to be 1.27 ± 0.01 and the “Wild-Type Reporter Ratio (± std)” value is given as 1.36 ± 0.07.
In the same order, the values of cyclo(S D H S Q) are “inactive”, 1.06 ± 0.06 and 1.20 ± 0.04.
Taken in the same sequence, the figures for cyclo(S T G P R) were “remained active”, 1.18 ± 0.04 and 1.19 ± 0.03.
In the same order, the values of cyclo(S R N W S H) are “inactive”, 1.06 ± 0.04 and 1.18 ± 0.04.
With cyclo(S V V T R), in the assay with germline ε promoter, the “activity” value was “remained active”, the “Mutant Reporter Ratio (± std)” value came out at 1.26 ± 0.03 and the “Wild-Type Reporter Ratio (± std)” value is on record as 1.19 ± 0.03.
In the same order, the values of cyclo(S V I E Q) are “decrease in activity”, 1.14 ± 0.04 and 1.22 ± 0.04.
In the same order, the values of cyclo(S R R D R I) are “inactive”, 1.08 ± 0.04 and 1.31 ± 0.03.
For the substance cyclo(S S C M R), in the assay with germline ε promoter, the “Mutant Reporter Ratio (± std)” value came out at 1.20 ± 0.12 and the “Wild-Type Reporter Ratio (± std)” value is listed as 1.12 ± 0.03.
